# Laboratory results taken from EPA's ToxRefDB 2.
# Assays:
# rat [1] = details: Prenatal developmental toxicity study; wistar; Injection; Intravenous; dose end: 18 GD; group: maternal; systemic / in life observation / body weight / body weight gain + systemic / in life observation / clinical signs / motor activity + …
# mouse [2] = details: Subchronic oral toxicity in rodents, other, Gavage/Intubation, dose end: 90 day, group: systemic
# rat [3] = details: Fertility (Segment I), wistar, Injection, Intravenous, dose end: 26 PND
# rat [4] = details: Subchronic oral toxicity in rodents, wistar, Gavage/Intubation, dose end: 3 month, group: systemic
# dog [5] = details: Sub-acute repeat dose toxicity, beagle, Injection, Intravenous, dose end: 4 week, group: systemic
# dog [6] = details: Subchronic oral toxicity in nonrodent; beagle; Injection; Intravenous; dose end: 3 month; group: systemic; systemic / hematology / erythrocyte (rbc) count differential / erythrocyte (rbc) + systemic / hematology / hematocrit (hct) / hematocrit (…
# rat [7] = details: Chronic toxicity, sprague dawley, Oral, Feed, dose end: 104 week, group: systemic
# rat [8] = details: Subchronic oral toxicity in rodents, sprague dawley, Feed, dose end: 90 day, group: systemic, systemic / pathology microscopic / stomach / hyperkeratosis + systemic / pathology microscopic / stomach / hyperplasia
# rat [9] = details: Neurotoxicity screening battery; sprague dawley; Oral; Feed; dose end: 90 day; group: cannot be grouped; systemic / in life observation / body weight / body weight + systemic / in life observation / food consumption / food consumption + systemic…
# rat [10] = details: Combined chronic toxicity/carcinogenicity, fischer, Oral, Feed, dose end: 129 week, group: systemic
# mouse [11] = details: Combined chronic toxicity/carcinogenicity; cd1; Oral; Feed; dose end: 24 month; group: systemic; systemic / pathology microscopic / stomach / carcinoma + systemic / organ weight / kidney / nos + systemic / organ weight / ovary / relative…
# rat [12] = details: Chronic toxicity, fischer, Oral, Feed, dose end: 104 week, group: systemic
# rat [13] = details: Subchronic oral toxicity in rodents, sprague dawley, Feed, dose end: 13 week, group: systemic
# rat [14] = details: Multigenerational reproductive toxicity study, sprague dawley, Oral, Feed, dose end: 2 generation
# dog [15] = details: Subchronic oral toxicity in nonrodent, beagle, Capsule, dose end: 102 day, group: systemic
# dog [16] = details: Chronic toxicity, beagle, Oral, Feed, dose end: 52 week, group: systemic
# rat [17] = details: Multigenerational reproductive toxicity study, Crl: CD BR, Oral, Feed, dose end: 2 generation
# rat [18] = details: Subchronic oral toxicity in rodents, sprague dawley, Feed, dose end: 90 day, group: systemic, systemic / organ weight / adrenal gland / absolute + systemic / organ weight / adrenal gland / relative to body weight + systemic / organ …
# [19] = systemic / organ weight / liver / relative to body weight + systemic / organ weight / kidney / absolute
# [20] = group: developmental, developmental / offspring survival late / viability index / viability index
# [21] = group: maternal, reproductive / reproductive performance / pregnancy / pregnancy
# [22] = group: offspring, systemic / in life observation / clinical signs / [other] + systemic / in life observation / clinical signs / abnormal gait + systemic / in …
# [23] = group: offspring, systemic / in life observation / clinical signs / abnormal gait + systemic / in life observation / clinical signs / convulsions + systemic…
# [24] = group: parental, systemic / in life observation / body weight / body weight gain + systemic / in life observation / clinical signs / [other] + systemic / in …
# [25] = systemic / clinical chemistry / alkaline phosphatase (alp/alk) / alkaline phosphatase (alp/alk) + systemic / clinical chemistry / calcium / …
# [26] = systemic / clinical chemistry / glucose / glucose + systemic / hematology / hemoglobin (hgb) / hemoglobin (hgb) + systemic / hematology / …
# [27] = systemic / in life observation / clinical signs / vomitting + systemic / organ weight / prostate / nos
# [28] = systemic / clinical chemistry / potassium / potassium
# [29] = systemic / clinical chemistry / potassium / potassium + systemic / clinical chemistry / albumin / albumin + systemic / clinical chemistry / …
# [30] = systemic / pathology microscopic / kidney / adenoma + systemic / pathology microscopic / kidney / carcinoma
# [31] = systemic / pathology microscopic / kidney / adenoma + systemic / pathology microscopic / kidney / carcinoma + systemic / pathology …
# [32] = systemic / pathology microscopic / kidney / hyperplasia + systemic / pathology microscopic / kidney / karyomegaly + systemic / in life …
# [33] = systemic / pathology microscopic / kidney / karyomegaly
# [34] = systemic / pathology microscopic / kidney / inclusion body intracytoplasmic
# [35] = group: offspring, systemic / in life observation / body weight / offspring (pup) weight
# [36] = group: parental, systemic / pathology microscopic / stomach / hyperkeratosis + systemic / pathology microscopic / stomach / hyperplasia + systemic / …
# [37] = systemic / pathology gross / stomach / adhesions + systemic / pathology gross / stomach / thickened + systemic / pathology microscopic / …
# [38] = systemic / pathology microscopic / stomach / congestion + systemic / pathology microscopic / stomach / mineralization + systemic / clinical …
# [39] = group: offspring, systemic / pathology gross / stomach / irregular surface + systemic / pathology gross / stomach / thickened + systemic / pathology …
# [40] = group: parental, systemic / organ weight / kidney / relative to body weight + systemic / pathology gross / stomach / irregular surface + systemic / pathology…
compound,measurement,setting,value
CC(C)c1ccc(C(=O)N=C(N)N)cc1S(C)(=O)=O.CS(=O)(=O)O [Cariporide mesylate],LEL,rat [1],125 mg/kg/day
same,LOAEL,rat [1],> 125 mg/kg/day
same,NEL,rat [1],25 mg/kg/day
same,NOAEL,rat [1],≥ 125 mg/kg/day
same,NOAEL,mouse [2]; systemic / organ weight / liver / relative to body weight + systemic / in life observation / clinical signs / abnormal gait + systemic / in …,250 mg/kg/day
same,LEL,mouse [2]; [19],250 mg/kg/day
same,LOAEL,mouse [2]; [19],500 mg/kg/day
same,NEL,mouse [2]; [19],< 250 mg/kg/day
same,LEL,rat [3]; [20],125 mg/kg/day
same,LOAEL,rat [3]; [20],> 125 mg/kg/day
same,NEL,rat [3]; [20],25 mg/kg/day
same,NOAEL,rat [3]; [20],≥ 125 mg/kg/day
same,LEL,rat [3]; [21],125 mg/kg/day
same,LOAEL,rat [3]; [21],> 125 mg/kg/day
same,NEL,rat [3]; [21],25 mg/kg/day
same,NOAEL,rat [3]; [21],≥ 125 mg/kg/day
same,LOAEL,rat [3]; [22],> 125 mg/kg/day
same,NOAEL,rat [3]; [22],≥ 125 mg/kg/day
same,LEL,rat [3]; [23],5 mg/kg/day
same,NEL,rat [3]; [23],< 5 mg/kg/day
same,LEL,rat [3]; [24],125 mg/kg/day
same,LOAEL,rat [3]; [24],> 125 mg/kg/day
same,NEL,rat [3]; [24],25 mg/kg/day
same,NOAEL,rat [3]; [24],≥ 125 mg/kg/day
same,LOAEL,rat [4]; [25],> 1000 mg/kg/day
same,NOAEL,rat [4]; [25],≥ 1000 mg/kg/day
same,LEL,rat [4]; [26],400 mg/kg/day
same,NEL,rat [4]; [26],< 400 mg/kg/day
same,NEL,dog [5]; systemic / in life observation / clinical signs / vomitting,5 mg/kg/day
same,LEL,dog [5]; [27],20 mg/kg/day
same,LOAEL,dog [5]; [27],> 20 mg/kg/day
same,NOAEL,dog [5]; [27],≥ 20 mg/kg/day
same,LEL,dog [6],1.25 mg/kg/day
same,LOAEL,dog [6],> 20 mg/kg/day
same,NEL,dog [6],< 1.25 mg/kg/day
same,NOAEL,dog [6],≥ 20 mg/kg/day
N#Cc1c(Cl)c(Cl)c(Cl)c(C#N)c1Cl [Chlorothalonil],LEL,rat [7]; [28],0.5 mg/kg/day
same,NEL,rat [7]; [28],< 0.5 mg/kg/day
same,LOAEL,rat [7]; [29],10 mg/kg/day
same,NOAEL,rat [7]; [29],3 mg/kg/day
same,LEL,rat [8],2.3 mg/kg/day
same,LOAEL,rat [8],2.3 mg/kg/day
same,NEL,rat [8],< 2.3 mg/kg/day
same,NOAEL,rat [8],< 2.3 mg/kg/day
same,LEL,rat [9],232 mg/kg/day
same,LOAEL,rat [9],232 mg/kg/day
same,NEL,rat [9],22 mg/kg/day
same,NOAEL,rat [9],22 mg/kg/day
same,LOAEL,rat [10]; [30],40 mg/kg/day
same,NOAEL,rat [10]; [30],< 40 mg/kg/day
same,LEL,rat [10]; [31],40 mg/kg/day
same,NEL,rat [10]; [31],< 40 mg/kg/day
same,LEL,mouse [11],112 mg/kg/day
same,LOAEL,mouse [11],112 mg/kg/day
same,NEL,mouse [11],< 112 mg/kg/day
same,NOAEL,mouse [11],< 112 mg/kg/day
same,LOAEL,rat [12]; [32],175 mg/kg/day
same,NOAEL,rat [12]; [32],15 mg/kg/day
same,LEL,rat [12]; [33],1.5 mg/kg/day
same,NEL,rat [12]; [33],< 1.5 mg/kg/day
same,LEL,rat [13]; [34],1.5 mg/kg/day
same,LOAEL,rat [13]; [34],3 mg/kg/day
same,NEL,rat [13]; [34],< 1.5 mg/kg/day
same,NOAEL,rat [13]; systemic / pathology microscopic / kidney / inclusion body intracytoplasmic + systemic / pathology microscopic / kidney / hyperplasia,1.5 mg/kg/day
same,LEL,rat [14]; [35],38 mg/kg/day
same,LOAEL,rat [14]; [35],234 mg/kg/day
same,NEL,rat [14]; [35],< 38 mg/kg/day
same,NOAEL,rat [14]; [35],115 mg/kg/day
same,LEL,rat [14]; [36],38 mg/kg/day
same,LOAEL,rat [14]; [36],38 mg/kg/day
same,NEL,rat [14]; [36],< 38 mg/kg/day
same,NOAEL,rat [14]; [36],< 38 mg/kg/day
same,LEL,dog [15]; systemic / clinical chemistry / glucose / glucose,15 mg/kg/day
same,LOAEL,dog [15]; systemic / clinical chemistry / glucose / glucose + systemic / organ weight / liver / absolute + systemic / urinalysis / ph / ph,50 mg/kg/day
same,NOAEL,dog [15]; systemic / clinical chemistry / glucose / glucose + systemic / organ weight / liver / absolute + systemic / urinalysis / ph / ph + systemic…,15 mg/kg/day
same,NEL,dog [15]; systemic / clinical chemistry / glucose / glucose + systemic / urinalysis / ph / ph + systemic / hematology / erythrocyte (rbc) count …,5 mg/kg/day
same,LOAEL,dog [16]; [37],43.3 mg/kg/day
same,NOAEL,dog [16]; [37],5.1 mg/kg/day
same,LEL,dog [16]; [38],5.1 mg/kg/day
same,NEL,dog [16]; [38],< 5.1 mg/kg/day
same,LEL,rat [17]; [39],32.9 mg/kg/day
same,LOAEL,rat [17]; [39],32.9 mg/kg/day
same,NEL,rat [17]; [39],< 32.9 mg/kg/day
same,NOAEL,rat [17]; [39],< 32.9 mg/kg/day
same,LEL,rat [17]; [40],28.6 mg/kg/day
same,LOAEL,rat [17]; [40],28.6 mg/kg/day
same,NEL,rat [17]; [40],< 28.6 mg/kg/day
same,NOAEL,rat [17]; [40],< 28.6 mg/kg/day
same,LEL,rat [18],250 mg/kg/day
same,LOAEL,rat [18],750 mg/kg/day
same,NEL,rat [18],< 250 mg/kg/day
same,NOAEL,rat [18],250 mg/kg/day
